Legend:
[1] = system: EB3DR-EpiSC; assay: Chimera forming ability after injection into mouse blastocyst; format: in vivo; details: EpiSC treated with LIF and the inhibitor, about 10 cells injected per embryo
Description: Furthermore, the chimera forming ability of the EB3DR-EpiSC treated with LIF and IWP-2 was checked. Specifically, the embryo of a BDF1 (C57BL6/N; DBA1 F1) mouse was cultured in Medium 2 (manufactured by Millipore Corporation) to the eight-cell stage or morula stage. The resultant embryo was transferred to KSOM medium (manufactured by Millipore Corporation) and cultured for 24 hours to be developed to the blastocyst stage. For the injection into an embryo, the cell was dissociated into a single cell by a trypsin treatment, and the resultant was suspended in a medium. A zona pellucida was perforated under a microscope by using a piezoelectric micromanipulator, and a chimeric embryo was produced by injecting approximately 10 cells into a space below the zona pellucida in each embryo. After the injection, the embryo was cultured in KSOM medium until a blastomere was obtained, and then, the resultant was transplanted into the uterus of a pseudopregnant ICR recipient female mouse. The chimera formation was checked on the basis of the color of a fur. A cell derived from BDF1×C57BL/6 grows a black fur, and a cell derived from 129/Ola grows a brown (agouti-colored) fur. […]

[2] = system: Wnt/β catenin signal; assay: Western blotting of β catenin in cytoplasmic and nuclear fractions; format: cell-based, mouse; details: EB3DR-EpiSC; for inhibition of Wnt/β catenin signal: Western blotting (FIG. 4 (A))
Description: First, in order to confirm the effect of IWP-2 on a Wnt/β catenin signal inhibition, the amount of protein in β catenin was checked by Western blotting. The EB3DR-EpiSC was cultured under the aforementioned culturing conditions, IWP-2 (at a final concentration of 5 nM) was added thereto, and the resultant was cultured for another 2 days. As a control, the same amount of DMSO was added instead of IWP-2. Next, Nuclear/Cytosol Fractionation Kit (Bio Vision, manufactured by Mountain View, Calif.) was used in accordance with the manufacturer's manual to separate a cytoplasmic fraction and a nuclear fraction. Each of these fractions thus obtained was dissolved in Laemmli Sample Buffer (Bio-Rad, manufactured by Hercules, Calif.) to perform SDS-PAGE. A protein separated by the SDS-PAGE was blotted on a PVDF transfer membrane (manufactured by Millipore Corporation) to perform a primary antibody reaction.
As a primary antibody, an anti-β catenin antibody (#9562, 1:1000), an anti-(β-actin antibody (#3770, 1:1000), or an anti-histone H3 antibody (#4499, 1:2000) purchased from Cell Signaling Technology Inc. was used. As a secondary antibody, for the anti-β catenin antibody or the anti-histone H3 antibody, an anti-rabbit IgG Horseradish peroxidase-conjugated antibody (NA934V, 1:100, manufactured by GE Healthcare UK, Little Chalfont, UK) was used for the reaction, and for the anti-β-actin antibody, an anti-mouse IgG Horseradish peroxidase-conjugated antibody (NA931V, 1:1000, manufactured by GE Healthcare UK, Little Chalfont, UK) was used for the reaction, and then a band bonded to the secondary antibody was detected by SuperSignal West Pico Chemiluminescent Substrate (manufactured by Thermo Fisher Scientific Inc., Rockford, Ill.). As a result, it was confirmed that the amount of β catenin was reduced in the nuclear fraction by IWP-2 and that a Wnt/β catenin signal was thus inhibited (see FIG. 4, (A)).

[3] = system: STAT3 signal; assay: Western blotting of phosphorylated STAT3; format: cell-based, mouse; details: EB3DR-EpiSC, 2nd day after stimulation
Source text: Besides, the EB3DR-EpiSC was stimulated with LIF, the resultant cell was collected on the 2nd day after stimulation, and the activation of a STAT3 signal was checked by the Western blotting. The activation of a STAT3 signal was checked on the basis of the presence of phosphorylated STAT3. The phosphorylated STAT3 was detected by using, as a primary antibody, an anti-P-STAT3 antibody (#9145, 1:2000, manufactured by Cell Signaling Technology Inc.) […] specifically recognizing phosphorylated STAT3.

[4] = system: EB3DR-EpiSC; assay: CD31 (PECAM-1) expression by FACS; format: cell-based, mouse; details: for expression of CD31 (CD31 positive cell frequency): in the presence of LIF
Description: Next, the expression of CD31 (PECAM-1) in these cells was analyzed. The expression level of CD31 was checked by the FACS by using an APC labeled rat anti-mouse CD31 antibody (manufactured by eBioscience, 17-0311). […] When a colony of the CD31 expressing cell was cloned and subcultured, a mouse ES cell-like morphology was obtained (see FIG. 4, (G)), and such a cell could be subcultured continuously for a long period of time similarly to a mouse ES cell. Since the cell was derived from the EB3DR-EpiSC, DsRed was expressed therein (see FIG. 4, (H)).
(§1) The naive-like colony formation and the chimera formation were checked in the same manner as described above except that XAV939 (manufactured by Sigma-Aldrich, S. Louis, Mo., USA) was used as the Wnt/β catenin signal inhibitor instead of IWP-2.

[5] = system: EB3DR-EpiSC; assay: Naive pluripotent stem cell-like colony formation of EpiSC; format: cell-based, mouse
Description: The EB3DR-EpiSC was cultured in N2B27 medium (Ying et al., Nature (2008), 435, 519-523) supplemented with 1,000 U/mL of mouse LIF and 1 μM of PD0325901 (manufactured by Axon, Groeningen, The Netherlands). To the resultant, 5 nM of IWP-2 (manufactured by Wako Pure Chemical Industries, Ltd., Osaka, Japan) was added, or CHIR known as an inhibitor of GSK3β or the same amount of DMSO was added instead of IWP-2, so as to check the influence on the EB3DR-EpiSC.
as §1

[6] = system: EB3DR-EpiSC-TRE-Cdh1; assay: CD31 expression by FACS in E-cadherin induced EpiSC; format: cell-based, mouse; details: 7 days, with forced expression of E-cadherin (Dox(+), 10 μg/mL doxycycline)
Description: The EB3DR-EpiSC-TRE-Cdh1 was cultured for 7 days in the presence of a basic fibroblast growth factor (bFGF) or LIF in a usual medium (Dox(−)) or a medium supplemented with 10 μg/mL of doxycycline (Dox(+)), and the resultant cell was dissociated with a trypsin/EDTA solution and stained with an APC labeled anti-mouse CD31 antibody to be analyzed by using the FACS.

Compound: O=c1[nH]c(-c2ccc(C(F)(F)F)cc2)nc2c1CSCC2 [XAV939, 3,5,7,8-tetrahydro-2-[4-(trifluoromethyl)phenyl]-4H-thiopyrano[4,3-d]pyrimidine-4-one]
- chimera formation (production of a chimeric animal) [1]: a chimeric animal was produced
- inhibition of Wnt/β catenin signal [2]: work as an inhibitor of a Wnt/β catenin signal
- activation of a STAT3 signal (presence of phosphorylated STAT3) [3]: also observed
- proportion of the CD31 (PECAM-1) positive cell on the 7th day after treatment ([4]; LIF used in combination): remarkably increased
- expression of CD31 (CD31 positive cell frequency) [4]: observed at a high frequency
- naive-like colony formation on the 7th day after treatment ([5]; LIF used in combination): formed a naive-like colony

Compound: Cc1ccc2nc(NC(=O)CSc3nc4c(c(=O)n3-c3ccccc3)SCC4)sc2c1 [IWP-2, N-(6-methyl-2-benzothiazolyl)-2-[(3,4,6,7-tetrahydro-4-oxo-3-phenylthieno[3,2-d]pyrimidine-2-yl)thio]-acetamide]
- chimera formation (production of a chimeric animal) [1]: confirmed, based on the fur color, as a chimeric mouse
- inhibition of Wnt/β catenin signal [2]: inhibited
- amount of β catenin in the nuclear fraction ([2]; final concentration 5 nM, 2 days, vs DMSO): reduced
- activation of a STAT3 signal (presence of phosphorylated STAT3) [3]: also observed
- expression of CD31 (CD31 positive cell frequency) [4]: expressed at a high frequency in a short period of time
- appearance of a colony corresponding to a naive pluripotent stem cell-like morphology, time after culture ([5]; N2B27 medium with 1,000 U/mL mouse LIF and 1 μM PD0325901, 5 nM IWP-2): ≤ 7 days
- appearance frequency of a colony characteristic to the naive pluripotent stem cell on the 14th day after culture ([5]; N2B27 medium with LIF and PD0325901, 5 nM IWP-2, vs CHIR or DMSO): significantly increased

Compound: bFGF: basic fibroblast growth factor, culture medium supplement
- CD31 (Pecam1) positive cell proportion [6]: the level was merely restrictive
